# Laboratory results from US20230085307A1, “PYRIDAZINONE COMPOUND AND HERBICIDE” (NISSAN CHEMICAL CORPORATION, priority 2019, published 2023).
# Assays:
# [1] = system: barnyard grass; assay: Test Example 3: herbicidal effect by foliage application, Wagner pot (Table 18, symbol H); format: in vivo, barnyard grass (Echinochloa crus-galli); conditions: 320 g/ha
# Procedure, shortened: (§1)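 Plants were sown in alluvial soil held under 0.1–0.5 cm standing water and grown 14 days in a greenhouse at 25–30 °C. An emulsifiable formulation, water-diluted to the set dose, was then sprayed onto the foliage, and effects were scored three weeks later using previously defined criteria.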
# [2] = system: Chinese sprangletop; assay: Test Example 3: herbicidal effect by foliage application, Wagner pot (Table 18, symbol D); format: in vivo, chinese sprangletop (Leptochloa chinensis); conditions: 320 g/ha
# Procedure, shortened: as §1
# [3] = system: rice flat sedge; assay: Test Example 3: herbicidal effect by foliage application, Wagner pot (Table 18, symbol E); format: in vivo, rice flat sedge (Cyperus iria); conditions: 320 g/ha
# Procedure, shortened: as §1
# [4] = system: southern crabgrass; assay: Test Example 4: herbicidal effect by soil treatment (Table 19, symbol F); format: in vivo, southern crabgrass (Digitaria ciliaris); conditions: amount of applied herbicide 320 g/ha
# Procedure, shortened: (§2)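 Step 1: sow seeds in sterilized diluvial soil, cover ~1.5 cm. Step 2: spray diluted emulsion onto soil surface at predetermined rate. Step 3: greenhouse, 25–30° C, three weeks. Step 4: grade effect on each plant by earlier criteria.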
# [5] = system: green foxtail; assay: Test Example 4: herbicidal effect by soil treatment (Table 19, symbol G); format: in vivo, green foxtail (Setaria viridis); conditions: amount of applied herbicide 320 g/ha
# Procedure, shortened: as §2
# [6] = system: barnyard grass; assay: Test Example 4: herbicidal effect by soil treatment (Table 19, symbol H); format: in vivo, barnyard grass (Echinochloa crus-galli); conditions: amount of applied herbicide 320 g/ha
# Procedure, shortened: as §2
# [7] = system: wild oat; assay: Test Example 4: herbicidal effect by soil treatment (Table 19, symbol I); format: in vivo, wild oat (Avena fatua); conditions: amount of applied herbicide 320 g/ha
# Procedure, shortened: as §2
# [8] = system: blackgrass; assay: Test Example 4: herbicidal effect by soil treatment (Table 19, symbol J); format: in vivo, blackgrass (Alopecurus myosuroides); conditions: amount of applied herbicide 320 g/ha
# Procedure, shortened: as §2
# [9] = system: Italian ryegrass; assay: Test Example 4: herbicidal effect by soil treatment (Table 19, symbol K); format: in vivo, Italian ryegrass (Lolium multiflorum); conditions: amount of applied herbicide 320 g/ha
# Procedure, shortened: as §2
# [10] = system: windgrass; assay: Test Example 4: herbicidal effect by soil treatment (Table 19, symbol L); format: in vivo, windgrass (Apera spica-venti); conditions: amount of applied herbicide 320 g/ha
# Procedure, shortened: as §2
# [11] = system: velvetleaf; assay: Test Example 4: herbicidal effect by soil treatment (Table 19, symbol M); format: in vivo, velvetleaf (Abutilon theophrasti); conditions: amount of applied herbicide 320 g/ha
# Procedure, shortened: as §2
# [12] = system: redroot pigweed; assay: Test Example 4: herbicidal effect by soil treatment (Table 19, symbol N); format: in vivo, redroot pigweed (Amaranthus retroflexus); conditions: amount of applied herbicide 320 g/ha
# Procedure, shortened: as §2
# [13] = system: lambsquarters; assay: Test Example 4: herbicidal effect by soil treatment (Table 19, symbol O); format: in vivo, lambsquarters (Chenopodium album); conditions: amount of applied herbicide 320 g/ha
# Procedure, shortened: as §2
# [14] = system: chickweed; assay: Test Example 4: herbicidal effect by soil treatment (Table 19, symbol P); format: in vivo, common chickweed (Stellaria media); conditions: amount of applied herbicide 320 g/ha
# Procedure, shortened: as §2
# [15] = system: persian speedwell; assay: Test Example 4: herbicidal effect by soil treatment (Table 19, symbol R); format: in vivo, Persian speedwell (Veronica persica); conditions: amount of applied herbicide 320 g/ha
# Procedure, shortened: as §2
# [16] = system: southern crabgrass; assay: Test Example 5: herbicidal effect by foliage application, plastic box (Table 20, symbol F); format: in vivo, southern crabgrass (Digitaria ciliaris); conditions: amount of applied herbicide 320 g/ha; foliage application after 14-day growth; evaluated three weeks after application
# Procedure, shortened: (§3)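 Foliar spray test: emulsion formulation diluted in water to a set application rate, sprayed onto 14-day-old plants raised in diluvial soil at 25° C to 30° C under glass. Both herbicidal effect and crop effect rated visually three weeks later.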
# [17] = system: green foxtail; assay: Test Example 5: herbicidal effect by foliage application, plastic box (Table 20, symbol G); format: in vivo, green foxtail (Setaria viridis); conditions: amount of applied herbicide 320 g/ha; foliage application after 14-day growth; evaluated three weeks after application
# Procedure, shortened: as §3
# [18] = system: barnyard grass; assay: Test Example 5: herbicidal effect by foliage application, plastic box (Table 20, symbol H); format: in vivo, barnyard grass (Echinochloa crus-galli); conditions: amount of applied herbicide 320 g/ha; foliage application after 14-day growth; evaluated three weeks after application
# Procedure, shortened: as §3
# [19] = system: wild oat; assay: Test Example 5: herbicidal effect by foliage application, plastic box (Table 20, symbol I); format: in vivo, wild oat (Avena fatua); conditions: amount of applied herbicide 320 g/ha; foliage application after 14-day growth; evaluated three weeks after application
# Procedure, shortened: as §3
# [20] = system: blackgrass; assay: Test Example 5: herbicidal effect by foliage application, plastic box (Table 20, symbol J); format: in vivo, blackgrass (Alopecurus myosuroides); conditions: amount of applied herbicide 320 g/ha; foliage application after 14-day growth; evaluated three weeks after application
# Procedure, shortened: as §3
# [21] = system: Italian ryegrass; assay: Test Example 5: herbicidal effect by foliage application, plastic box (Table 20, symbol K); format: in vivo, Italian ryegrass (Lolium multiflorum); conditions: amount of applied herbicide 320 g/ha; foliage application after 14-day growth; evaluated three weeks after application
# Procedure, shortened: as §3
# [22] = system: windgrass; assay: Test Example 5: herbicidal effect by foliage application, plastic box (Table 20, symbol L); format: in vivo, windgrass (Apera spica-venti); conditions: amount of applied herbicide 320 g/ha; foliage application after 14-day growth; evaluated three weeks after application
# Procedure, shortened: as §3
# [23] = system: velvetleaf; assay: Test Example 5: herbicidal effect by foliage application, plastic box (Table 20, symbol M); format: in vivo, velvetleaf (Abutilon theophrasti); conditions: amount of applied herbicide 320 g/ha; foliage application after 14-day growth; evaluated three weeks after application
# Procedure, shortened: as §3
# [24] = system: redroot pigweed; assay: Test Example 5: herbicidal effect by foliage application, plastic box (Table 20, symbol N); format: in vivo, redroot pigweed (Amaranthus retroflexus); conditions: amount of applied herbicide 320 g/ha; foliage application after 14-day growth; evaluated three weeks after application
# Procedure, shortened: as §3
# [25] = system: lambsquarters; assay: Test Example 5: herbicidal effect by foliage application, plastic box (Table 20, symbol O); format: in vivo, lambsquarters (Chenopodium album); conditions: amount of applied herbicide 320 g/ha; foliage application after 14-day growth; evaluated three weeks after application
# Procedure, shortened: as §3
# [26] = system: chickweed; assay: Test Example 5: herbicidal effect by foliage application, plastic box (Table 20, symbol P); format: in vivo, common chickweed (Stellaria media); conditions: amount of applied herbicide 320 g/ha; foliage application after 14-day growth; evaluated three weeks after application
# Procedure, shortened: as §3
# [27] = system: persian speedwell; assay: Test Example 5: herbicidal effect by foliage application, plastic box (Table 20, symbol R); format: in vivo, Persian speedwell (Veronica persica); conditions: amount of applied herbicide 320 g/ha; foliage application after 14-day growth; evaluated three weeks after application
# Procedure, shortened: as §3
smiles,measurement,setting,value
COc1cccc(-c2sc3c(C)cccc3c2-c2c(O)c(C)nn(C)c2=O)c1 [4-108],herbicidal effect on barnyard grass (H),[1],4 (Herbicidal rate of 70% or more and less than 90%)
same,herbicidal effect on Chinese sprangletop (D),[2],0 (Herbicidal rate of 5% or less (almost no effect))
same,herbicidal effect on rice flat sedge (E),[3],5 (Herbicidal rate of 90% or more (almost completely withered))
same,"Herbicidal effect by soil treatment, F: southern crabgrass",[4],2 (Herbicidal rate of 20% or more and less than 40%)
same,"Herbicidal effect by soil treatment, G: green foxtail",[5],0 (Herbicidal rate of 5% or less (almost no effect))
same,"Herbicidal effect by soil treatment, H: barnyard grass",[6],0 (Herbicidal rate of 5% or less (almost no effect))
same,"Herbicidal effect by soil treatment, I: wild oat",[7],0 (Herbicidal rate of 5% or less (almost no effect))
same,"Herbicidal effect by soil treatment, J: blackgrass",[8],2 (Herbicidal rate of 20% or more and less than 40%)
same,"Herbicidal effect by soil treatment, K: Italian ryegrass",[9],1 (Herbicidal rate of 5% or more and less than 20%)
same,"Herbicidal effect by soil treatment, L: windgrass",[10],0 (Herbicidal rate of 5% or less (almost no effect))
same,"Herbicidal effect by soil treatment, M: velvetleaf",[11],3 (Herbicidal rate of 40% or more and less than 70%)
same,"Herbicidal effect by soil treatment, N: redroot pigweed",[12],5 (Herbicidal rate of 90% or more (almost completely withered))
same,"Herbicidal effect by soil treatment, O: lambsquarters",[13],4 (Herbicidal rate of 70% or more and less than 90%)
same,"Herbicidal effect by soil treatment, P: chickweed",[14],1 (Herbicidal rate of 5% or more and less than 20%)
same,"Herbicidal effect by soil treatment, R: persian speedwell",[15],3 (Herbicidal rate of 40% or more and less than 70%)
same,"Herbicidal effect by foliage application, F: southern crabgrass",[16],3 (Herbicidal rate of 40% or more and less than 70%)
same,"Herbicidal effect by foliage application, G: green foxtail",[17],3 (Herbicidal rate of 40% or more and less than 70%)
same,"Herbicidal effect by foliage application, H: barnyard grass",[18],2 (Herbicidal rate of 20% or more and less than 40%)
same,"Herbicidal effect by foliage application, I: wild oat",[19],0 (Herbicidal rate of 5% or less (almost no effect))
same,"Herbicidal effect by foliage application, J: blackgrass",[20],4 (Herbicidal rate of 70% or more and less than 90%)
same,"Herbicidal effect by foliage application, K: Italian ryegrass",[21],5 (Herbicidal rate of 90% or more (almost completely withered))
same,"Herbicidal effect by foliage application, L: windgrass",[22],0 (Herbicidal rate of 5% or less (almost no effect))
same,"Herbicidal effect by foliage application, M: velvetleaf",[23],4 (Herbicidal rate of 70% or more and less than 90%)
same,"Herbicidal effect by foliage application, N: redroot pigweed",[24],4 (Herbicidal rate of 70% or more and less than 90%)
same,"Herbicidal effect by foliage application, O: lambsquarters",[25],4 (Herbicidal rate of 70% or more and less than 90%)
same,"Herbicidal effect by foliage application, P: chickweed",[26],5 (Herbicidal rate of 90% or more (almost completely withered))
same,"Herbicidal effect by foliage application, R: persian speedwell",[27],5 (Herbicidal rate of 90% or more (almost completely withered))
